Experimental data: patent US8017630B2 (priority 2004, dated 2011)
Where two headings read alike, the source gives them in different places.

Columns and labels:
5HT uptake = format: biochemical, rat
NA uptake = format: biochemical, rat

SMILES	5HT uptake % (10) (5HT uptake; hydrochloride) [%]	NA uptake % (10) (NA uptake; hydrochloride) [%]	melting point [°C]	5HT uptake % (10) (5HT uptake) [%]	NA uptake % (10) (NA uptake) [%]
CN(C)C1(c2ccccn2)CCC(CC(=O)NCCc2c[nH]c3ccccc23)CC1.Cl (centres unmarked) [Example 47, 2-(4-Dimethylamino-4-pyridin-2-ylcyclohexyl)-N-[2-(1H-indol-3-yl)ethyl]acetamide hydrochloride]	46	63	150 to 153		
CN(C)C1(c2ccccn2)CCC(CC(=O)NCCc2c[nH]c3ccccc23)CC1.Cl (centres unmarked) [Example 48, 2-(4-Dimethylamino-4-pyridin-2-ylcyclohexyl)-N-[2-(1H-indol-3-yl)ethyl]acetamide hydrochloride]	85	74			
CN(C)C1(c2ccccn2)CCC(CC(=O)NCCCc2ccccc2)CC1.Cl (centres unmarked) [Example 49, 2-(4-Dimethylamino-4-pyridin-2-ylcyclohexyl)-N-(3-phenylpropyl)acetamide hydrochloride]			218 to 220	32	94
